Experimental data published in patent US20170143771A1, “COMPOSITION CONTAINING PSEUDOMONAS AERUGINOSA CULTURE SOLUTION EXTRACT HAVING ANTIBIOTIC AND ANTISEPTIC ACTIVITIES, AND USE THEREOF” (JOINT CENTER FOR BIOSCIENCES, priority 2014, published 2017).

Tests used:
S. aureus = assay: Antibiotic activity of R1 fractions and rhamnolipids (clear zone on agar plate); assay type: cell-based, Staphylococcus aureus; conditions: concluded from fraction activity and LC/MS peaks 1 and 2
Experimental: 1 mg of a mixture state of R1 extracted from a microorganism (P. aeruginosa) culture was dissolved in methanol, and then injected in the sep-Pak vac 1cc tc18 cartridge column. After that, the column was washed with solvent A, and solvent B as a development solvent was injected thereinto. Solvent B with different concentrations was injected into the column, and the fractions passing through the column were collected, and named fraction 1, fraction 2, fraction 3, fraction 4, fraction 5, and fraction 6. The different concentrations of solvent B injected to the column were 50%, 55%, 60%, 65%, 70%, and 75%.
Each of the obtained fractions was dried, and then dissolved at a concentration of 10 mg/ml in methanol. 20 μl of each of the fractions dissolved in methanol was dropped on an agar plate plated with the S. aureus culture, and cultured at 37° C. for 18 hours. After 18 hours, the clear zone generated on the agar plate was observed.

Bacillus cereus = assay: Preservative power test (challenge test), lotion dosage form; assay type: cell-based; conditions: 0.5%
Experimental: (§1) In order to investigate the possibility of R1 as a preservative compared with methyl paraben, the preservative power test was conducted by measuring the sterilizing power of a toner dosage form and a lotion dosage form of R1 against gram positive pathogens (Staphylococcus aureus and Bacillus cereus) and gram negative pathogens (Pseudomonas aeruginosa and Escherichia coli). The preservative power test was conducted on the basis of the U.S. Cosmetics, Toiletry, and Fragrance Association (CTFA), and the basis is that a particular material has a possibility as a preservative if the particular material in dosage forms of a toner or lotion kills 99.9% of inoculated bacteria within 7 days.
(§2) R1 and methyl paraben, which were dissolved in methanol, each were added to the toner dosage form, so that the final concentration of each of R1 and the methyl paraben had 0% and 0.5%, and the S. aureus, B. cereus, P. aeruginosa, and C. albicans cultures each were inoculated in each container. The number of inoculated bacterial cells was 106-107 colony forming unit (CFU)/ml. While the bacteria-inoculated lotions were kept at room temperature, each lotion was diluted immediately, one day, three days, five days, and seven days after the inoculation of bacteria, and 200 μl of the lotions inoculated with S. aureus, B. cereus, and P. aeruginosa each were as plated on LB agar plate, and 200 μl of the lotion inoculated with C. albicans was plated on YPD agar plate. The death or not of bacteria was checked by calculating the number of cells and then comparing the calculated number with the number of initially inoculated bacteria. As control, only methanol was added to the lotion dosage form, and the bacteria culture was inoculated, followed by repeated tests.

Candida albicans = assay: as above; assay type: cell-based; conditions: 0.5%
Experimental: as §1, §2

Pseudomonas aeruginosa = assay: as above; assay type: cell-based; conditions: 0.5%
Experimental: as §1, §2

Staphylococcus aureus = assay: as above; assay type: cell-based; conditions: 0.5%
Experimental: as §1, §2

[1] = DPPH scavenging activity test (antioxidative effect); assay type: biochemical; conditions: concentration of 0.5% or more; 30 minutes, absorbance 517 nm; compared with ascorbic acid (AA)
Experimental: The color change of the DPPH radical is distinctive as it reacts with a reagent having excellent antioxidative ability. R1, ascorbic acid (AA), and methyl paraben (MTP) each were dissolved at different concentrations in methanol. The thus obtained samples (100 μl) each were dissolved at a concentration of 0.006% in methanol, and mixed with 100 μl of the DPPH radical solution to prepare a total volume of 200 μl, followed by reaction in a light-blocked space for 30 minutes. After completion of the reaction, the absorbance of each mixture was measured at 517 nm to determine antioxidative ability of each sample.

CCCCCCCC(CC(=O)O)OC(=O)CC(CCCCCCC)O[C@@H]1O[C@@H](C)[C@H](O)[C@@H](O)[C@H]1O (some centres unmarked) [Rha-C10-C10]
active ingredient having antibacterial activity (S. aureus): active ingredients having antibacterial activity

CCCCCCCC(CC(=O)O)OC(=O)CC(CCCCCCC)OC1OC(C)C(O)C(O)C1OC1OC(C)C(O)C(O)C1O (stereo not drawn) [Rha-Rha-C10-C10]
active ingredient having antibacterial activity (S. aureus): active ingredients having antibacterial activity

COC(=O)c1ccc(O)cc1 [MTP, methyl paraben]
survival rate of inoculated bacteria (Bacillus cereus; Day 0): 100% | survival rate of inoculated bacteria (Bacillus cereus; Day 1): 0.12% | survival rate of inoculated bacteria (Bacillus cereus; Day 3): 0.06% | survival rate of inoculated bacteria (Bacillus cereus; Day 5): 0.02% | survival rate of inoculated bacteria (Bacillus cereus; Day 7): 0.01% | survival rate of inoculated bacteria (Candida albicans; Day 0): 100% | survival rate of inoculated bacteria (Candida albicans; Day 1): 0% | survival rate of inoculated bacteria (Candida albicans; Day 3): 0% | survival rate of inoculated bacteria (Candida albicans; Day 5): 0% | survival rate of inoculated bacteria (Candida albicans; Day 7): 0% | survival rate of inoculated bacteria (Pseudomonas aeruginosa; Day 0): 100% | survival rate of inoculated bacteria (Pseudomonas aeruginosa; Day 1): 0% | survival rate of inoculated bacteria (Pseudomonas aeruginosa; Day 3): 0% | survival rate of inoculated bacteria (Pseudomonas aeruginosa; Day 5): 0% | survival rate of inoculated bacteria (Pseudomonas aeruginosa; Day 7): 0% | survival rate of inoculated bacteria (Staphylococcus aureus; Day 0): 100% | survival rate of inoculated bacteria (Staphylococcus aureus; Day 1): 0% | survival rate of inoculated bacteria (Staphylococcus aureus; Day 3): 0% | survival rate of inoculated bacteria (Staphylococcus aureus; Day 5): 0% | survival rate of inoculated bacteria (Staphylococcus aureus; Day 7): 0% | antioxidative effect (DPPH scavenging activity) [1]: significantly low antioxidative effect
